Tested on: P23H opsin
Assay: Rhodopsin purification and regeneration (P23H cells treated with compound, regenerated with 9-cis-retinal, 480-500 nm absorbance)
Settings: P23H cells, 48 hours, regeneration with 9-cis-retinal (20 μM)

Row | Structure (SMILES) | Fold Increase Over Control (480-500 nm absorbance as fold increase over the DMSO control) (compound concentration 10 μM) [fold] | Fold Increase Over Control (480-500 nm absorbance as fold increase over the DMSO control) (compound concentration 20 μM) [fold]
1 | CC1=CC(=O)[C@H]2C(C)(C)CCC[C@@]12C (racemic) [Compound 1, (±)-(3aR,7aS)-3,3a,7,7-tetramethyl-3a,4,5,6,7,7a-hexahydro-1H-inden-1-one] | 1.7 | –
2 | CC1(C)CCC(C)(C)[C@H]2OC(=O)C[C@H]21 (racemic) [Compound 3, (±)-(3aS,7aS)-4,4,7,7-tetramethylhexahydrobenzofuran-2(3H)-one] | – | 2.2
3 | CC1(C)CCC[C@@]2(C)C(=O)CC[C@@H]12 (racemic) [Compound 5, (±)-(3aS,7aR)-4,4,7a-trimethyloctahydro-1H-inden-1-one] | 1.7 | –
4 | COC(=O)C1=C[C@]2(C)CCCC(C)(C)[C@@H]2C1 (racemic) [Compound 8, (±)-(3aS,7aS)-methyl 3a,7,7-trimethyl-3a,4,5,6,7,7a-hexahydro-1H-indene-2-carboxylate] | – | 2.1
5 | CC1=CC(=NO)[C@H]2C(C)(C)CCC[C@@]12C (racemic) [Compound 14, (±)-(3aR,7aS)-3,3a,7,7-tetramethyl-3a,4,5,6,7,7a-hexahydro-1H-inden-1-one oxime] | – | 2.4
6 | C[C@@H]1CC(=NO)[C@H]2C(C)(C)CCC[C@@]12C (racemic) [Compound 16, (±)-(3R,3aS,7aS)-3,3a,7,7-tetramethyloctahydro-1H-inden-1-one oxime] | – | 2.2
7 | CC1(C)CCC[C@@]2(C)[C@@H](O)CC[C@@H]12 (racemic) [Compound 18, (±)-(1S,3aS,7aR)-4,4,7a-trimethyloctahydro-1H-inden-1-ol] | – | 1.7
8 | C[C@H]1C(=O)C=C2C(C)(C)CCC[C@]21C (racemic) [Compound 20, (±)-(1R,7aS)-1,4,4,7a-tetramethyl-5,6,7,7a-tetrahydro-1H-inden-2(4H)-one] | – | 1.9
9 | CC1(C)CCC[C@@]2(C)C=C(CO)C[C@@H]12 (racemic) [Compound 22, (±)-((3aS,7aS)-3a,7,7-trimethyl-3a,4,5,6,7,7a-hexahydro-1H-inden-2-yl)methanol] | – | 1.8
10 | CC1(C)CCC[C@@]2(C)CC(CO)C[C@@H]12 (mixture of isomers) [Compound 26, (±)-((3aS,7aS)-3a,7,7-trimethyloctahydro-1H-inden-2-yl)methanol] | – | 2.3
11 | CC1(C)CCC[C@@]2(C)C(c3ccccc3)=CC(=O)[C@@H]12 (racemic) [Compound 28, (±)-(3aR,7aS)-3a,7,7-trimethyl-3-phenyl-3a,4,5,6,7,7a-hexahydro-1H-inden-1-one] | 1.7 | –
12 | CC(C)C1=CC(=O)[C@H]2C(C)(C)CCC[C@@]12C (racemic) [Compound 29, (±)-(3aR,7aS)-3-isopropyl-3a,7,7-trimethyl-3a,4,5,6,7,7a-hexahydro-1H-inden-1-one] | 2.4 | –
13 | CC1(C)CCC[C@@]2(C)C(=NO)CC[C@@H]12 (racemic) [Compound 33, (±)-(3aS,7aR)-4,4,7a-trimethyloctahydro-1H-inden-1-one oxime] | 1.8 | –
14 | CCC1=CC(=O)[C@H]2C(C)(C)CCC[C@@]12C (racemic) [Compound 34, (±)-(3aR,7aS)-3-ethyl-3a,7,7-trimethyl-3a,4,5,6,7,7a-hexahydro-1H-inden-1-one] | 2.2 | –
15 | CC1(C)CCC[C@@]2(C)C=C[C@H](O)[C@@H]12 (racemic) [Compound 36, (±)-(1S,3aS,7aS)-3a,7,7-trimethyl-3a,4,5,6,7,7a-hexahydro-1H-inden-1-ol] | 2.0 | –
16 | CC1(C)CCC[C@@]2(C)C=C[C@@H](O)[C@@H]12 (racemic) [Compound 37, (±)-(1R,3aS,7aS)-3a,7,7-trimethyl-3a,4,5,6,7,7a-hexahydro-1H-inden-1-ol] | 1.8 | –
17 | CC1(C)CCC[C@@]2(C)CC(=O)C[C@@H]12 (racemic) [Compound 40, (±)-(3aS,7aS)-3a,7,7-trimethylhexahydro-1H-inden-2(3H)-one] | 1.8 | –
18 | CC(C)(C)C1=CC(=O)[C@H]2C(C)(C)CCC[C@@]12C (racemic) [Compound 43, (±)-(3aR,7aS)-3-tert-butyl-3a,7,7-trimethyl-3a,4,5,6,7,7a-hexahydro-1H-inden-1-one] | 1.7 | –
19 | CC1(C)CCC[C@@]2(C)C(C3CC3)=CC(=O)[C@@H]12 (racemic) [Compound 44, (±)-(3aR,7aS)-3-cyclopropyl-3a,7,7-trimethyl-3a,4,5,6,7,7a-hexahydro-1H-inden-1-one] | 2.2 | –
20 | CC(C)C1=CC(=NO)[C@H]2C(C)(C)CCC[C@@]12C (racemic) [Compound 45, (±)-(3aR,7aS)-3-isopropyl-3a,7,7-trimethyl-3a,4,5,6,7,7a-hexahydro-1H-inden-1-one oxime] | 3.0 | –
21 | CC(C)[C@@H]1CC(=O)[C@H]2C(C)(C)CCC[C@@]12C (racemic) [Compound 46, (±)-(3S,3aS,7aS)-3-isopropyl-3a,7,7-trimethyloctahydro-1H-inden-1-one] | 1.8 | –
22 | CON=C1C=C(C(C)C)[C@]2(C)CCCC(C)(C)[C@H]12 (racemic) [Compound 51, (±)-(3aR,7aS)-3-isopropyl-3a,7,7-trimethyl-3a,4,5,6,7,7a-hexahydro-1H-inden-1-one O-methyl oxime] | 1.7 | –
23 | CC(C)[C@@H]1C[C@H](O)[C@H]2C(C)(C)CCC[C@@]12C (racemic) [Compound 58, (±)-(1S,3S,3aS,7aS)-3-isopropyl-3a,7,7-trimethyloctahydro-1H-inden-1-ol] | – | 2.0
24 | CC1(C)CCC[C@@]2(C)CC[C@H](O)[C@@H]12 (racemic) [Compound 60, (±)-(1S,3aS,7aS)-3a,7,7-trimethyloctahydro-1H-inden-1-ol] | – | 2.1
25 | CC(C)[C@H]1C(=O)C=C2[C@H]1CCCC2(C)C (racemic) [Compound 61, (±)-(1R,7aS)-1-isopropyl-4,4-dimethyl-5,6,7,7a-tetrahydro-1H-inden-2(4H)-one] | – | 1.8
26 | CC1(C)CCC[C@@]2(C)CC(=NO)C[C@@H]12 (racemic) [Compound 62, (±)-(3aS,7aS)-3a,7,7-trimethylhexahydro-1H-inden-2(3H)-one oxime] | – | 2.3
27 | CC1(C)CCC[C@@]2(C)CC(O)C[C@@H]12 (mixture of isomers) [Compound 63, (±)-(3aS,7aS)-3a,7,7-trimethyloctahydro-1H-inden-2-ol] | – | 2.3
